Laboratory results from patent US20220370416A1, “COMPOUNDS AND METHODS FOR TARGETED DEGRADATION OF KRAS” (Arvinas Operations, Inc., priority 2020, published 2022).

Tests used:
KRAS^G12C [1] = target: T1, KRAS^G12C (Homo sapiens, UniProt P01116, G12C); assay: KRAS^G12C degradation by immunoblot in NCI-H358 cells; format: cell-based; design: MRTX849-VHL bifunctional compounds engage and degrade endogenous KRAS^G12C in NCI-H2030 cells; endogenous in cells; host or cells: NCI-H2030, NCI-H358, MIA PaCa-2, SW1573, NCI-H23; conditions: NCI-H358, heterozygous KRAS^G12C
T1 sequence (P01116 1-188 isoform P01116-2 G12C): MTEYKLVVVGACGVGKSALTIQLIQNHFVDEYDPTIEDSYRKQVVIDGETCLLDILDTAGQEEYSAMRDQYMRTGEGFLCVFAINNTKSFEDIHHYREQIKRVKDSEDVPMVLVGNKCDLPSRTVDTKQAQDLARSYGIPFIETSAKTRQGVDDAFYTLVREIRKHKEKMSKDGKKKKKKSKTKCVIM
Experimental: NCI-H2030 (CRL-5914), MIA PaCa-2 (CRL-1420), NCI-H23 (CRL-5800), NCI-H358 (CRL-5807), and HCT-116 (CCL-247) cells were obtained from ATCC, expanded immediately, and frozen down. Vials were thawed and used within 20 passages. SW1573 cells were a gift from Arvinas and were handled in the same manner. NCI-H2030, NCI-H23, and NCI-H358 were cultured in RPMI (ATCC30-2001) supplemented with 10% FBS (Biological Industries; cat. no. S1480) and 1% Penicillin-Streptomycin (ThermoFisher; cat. no. 15140122). HCT-116 cells were maintained in high glucose DMEM (ThermoFisher; cat. no. 11965084) supplemented as above. […]
Cell lysates were clarified at 21000×g for 15 mins at 4° C. Protein levels were quantified using a 50:1 mixture of bicinchoninic acid solution (Millipore Sigma; cat. no. B9643) and 4% (w/v) copper(II) sulfate solution (Millipore Sigma; cat. no. C2284) incubated at 37° C. for 30 mins. Absorbance values at 560 nm were read on an EnVision 2101 Multilabel Reader (PerkinElmer). […]
Band intensities were quantified using BioRad's Image Lab Software. Total KRAS levels were examined by quantifying levels of both conjugated KRAS^G12C and unbound KRAS (wt or mutant) using an analysis box that spanned the two bands. This same sized box was used to quantify unbound KRAS in DMSO treated samples to account for background, except for LC-2 Epimer in FIGS. 6A and 6B. […]

KRAS^G12C [2] = target: T1, KRAS^G12C; assay: KRAS^G12C degradation in heterozygous NCI-H23 cells; format: cell-based; design: endogenous in cells; host or cells: NCI-H23

SMILES: C=C(F)C(=O)N1CCN(c2nc(OC[C@@H]3CCCN3CCCOCCC(=O)N[C@H](C(=O)N3C[C@H](O)C[C@H]3C(=O)NCc3ccc(-c4scnc4C)cc3)C(C)(C)C)nc3c2CCN(c2cccc4cccc(Cl)c24)C3)C[C@@H]1CC#N [LC-2, (2S,4R)-1-((S)-2-(3-(3-((S)-2-(((7-(8-chloronaphthalen-1-yl)-4-((S)-3-(cyanomethyl)-4-(2-fluoroacryloyl)piperazin-1-yl)-5,6,7,8-tetrahydropyrido[3,4-d]pyrimidin-2-yl)oxy)methyl)pyrrolidin-1-yl)propoxy)propanamido)-3,3-dimethylbutanoyl)-4-hydroxy-N-(4-(4-methylthiazol-5-yl)benzyl)pyrrolidine-2-carboxamide]
- DC50 (KRAS^G12C [1]): 520 ± 300 nM
- Dmax (KRAS^G12C [1]): > 40%
- rescue of induced KRAS^G12C degradation (mechanism) (KRAS^G12C [2]; NCI-H23 cells, neddylation inhibition vs inhibition of lysosomal acidification (FIG. 5B)): Inhibition of neddylation, but not inhibition of lysosomal acidification, rescues
- induction of KRAS^G12C degradation (KRAS^G12C [2]; heterozygous NCI-H23 cells (FIG. 4D)): induces KRAS^G12C degradation
